Test results: US20090298814A1, “Novel salts of conjugated psychotropic drugs and processes of preparing same” (RAMOT AT TEL AVIV UNIVERISTY LTD, priority 2005, published 2009)
Structures can show the parent of a compound that is named as a salt.

Legend:
Assay type in all cases: physicochemical
[1] = Stability of AN-197 under acidic conditions (citric acid solution); conditions: in ethyl acetate, stirred in citric acid solution overnight
Protocol: To evaluate the stability of AN-197 under acidic conditions, a sample of AN-197, prepared according to the procedure described in Example 4 (Route B) above, was dissolved in ethyl acetate and stirred in a citric acid solution overnight.

[2] = Stability of AN-197 in dichloromethane, acetonitrile or ethyl acetate heated to 40° C. overnight; conditions: dissolved in dichloromethane
Protocol: To evaluate the stability of AN-197 under conditions of a large scale production, characterized by longer procedure times, samples of AN-197, prepared according to the procedure described in Example 4 above (Route B) above, dissolved in dichloromethane, acetonitrile or ethyl acetate were heated to 40° C. overnight. […] It was therefore concluded that AN-197 is stable under such conditions.

[3] = Stability of AN-197 by daily HPLC over 24 days, mobile phase solution vs neat oil; conditions: 20° C.
Protocol: (§1) HPLC analyses were performed on a Water 2695 Separations Module, using a Luna C18 (2) 50 mm×4.6 mm×3 um column, a 5 μl injection volume and a 2487 dual wavelength detector under the following instrumental conditions: Mobile phase A: 0.1% formic acid; Mobile phase B: acetonitrile; Flow rate: 0.5 ml per minute; Mobile phase gradient: 0.0 minutes 90% A, 10% B, 14.0 minutes 20% A, 80% B, 15.0 minutes 90% A, 10% B and 20.0 minutes 90% A, 10% B; Run time: 20 minutes; Detection: UV at 254 nm; Column temperature: 40° C.
The stability of AN-197 was determined by performing an HPLC analysis daily during a period of 24 days and determining the appearance of perphenazine and GABA, the degradation products of AN-197. A sample of AN-197, prepared according to the procedure described above in Example 4 (Route B), was dissolved in the mobile phase solution used in the HPLC analysis (2:1 acetonitrile:water, pH=8) and was kept at 20° C. For comparison, a sample of neat AN-197 was kept under the same conditions and was similarly analyzed.

[4] = Chemical stability of mesylate and maleate salts by HPLC under various storage conditions
Protocol: The chemical stability of the conjugates was determined by HPLC analyses and was measured by the relative peak areas of the substance and of at least one of its degradation products. Thus, as is further exemplified in the Examples section that follows, the chemical stability of the exemplary conjugates described above was measured during time periods that typically ranged from 1 day to 24 days, whereby the conjugates were kept in sealed or open containers, with or without nitrogen atmosphere, and at a temperature range of from −20° C. to 40° C.
as §1
(§2) Stability and hygroscopicity studies of the mesylate and maleate salts of the conjugate were carried out under various conditions. The hygroscopicity of the salts was determined by following the water content of the salt using the Karl Fischer (KF) titration analysis method. The chemical stability of the salts was determined by following the appearance of the degradation product perphenazine using HPLC analyses. The samples were kept at −20° C. under nitrogen, at room temperature in an open container, at room temperature in a sealed container and at 40° C. in a sealed container. The samples were tested at the end of the preparation procedure (t=0), 72 hours after the preparation time (t=72), 1 week after the preparation time (t=168) and two weeks after the preparation time (t=336).

[5] = Hygroscopicity of mesylate and maleate salts by Karl Fischer titration
Protocol: Water absorption and content measurements were carried out using a Karl Fischer (KF) titrator. Karl Fischer titration is a classic method in analytical chemistry that uses calometric titration to determine the moisture content of a sample, which is specific to water. The titration reaction taking place in the presence of a base and 50:50 methanol:dichloromethane as a titration solvent.
The accurately weighted samples (near 100 mg) of the tested compound were placed in the titrator to determine the amount of sample required for measuring 10-250 μg of water, and the water content was calculated accordingly.
as §2

[6] = Solubility in 1% weight/volume lactic acid solution; conditions: agitated 1 hour at room temperature
Protocol: 1.0 gram of each of the mesylate and maleate addition salts prepared as described herein was agitated in 10 ml of 1% weight/volume lactic acid solution for 1 hour at room temperature. Any solids remaining thereafter were filtered off and the filtrate was dried under vacuum until no further change in weight was detected. […] The calculated solubility obtained for the mesylate salt was more than 100 mg/ml.

[7] = Chemical stability of mesylate and maleate salts by HPLC under various storage conditions; conditions: for texture and color after storage: room temperature, open to the atmosphere
[8] = Open container kept at room temperature, t = 0 hours
[9] = Open container kept at room temperature, t = 72 hours
[10] = Open container kept at room temperature, t = 168 hours
[11] = Open container kept at room temperature, t = 336 hours
[12] = Sealed container kept at 40° C., t = 0 hours
[13] = Sealed container kept at 40° C., t = 72 hours
[14] = Sealed container kept at 40° C., t = 168 hours
[15] = Sealed container kept at 40° C., t = 336 hours
[16] = Sealed container kept at room temperature, t = 0 hours
[17] = Sealed container kept at room temperature, t = 72 hours
[18] = Sealed container kept at room temperature, t = 168 hours
[19] = Sealed container kept at room temperature, t = 336 hours
[20] = Sealed container kept at −20° C. under N2, t = 0 hours
[21] = Sealed container kept at −20° C. under N2, t = 72 hours
[22] = Sealed container kept at −20° C. under N2, t = 168 hours
[23] = Sealed container kept at −20° C. under N2, t = 336 hours
[24] = open container at room temperature, five weeks (about 840 hours)

With `CC(C)(C)OC(=O)NCCCC(=O)OCCN1CCN(CCCN2c3ccccc3Sc3ccc(Cl)cc32)CC1` [AN-197, Perphenazine N-Boc-4-aminobutyrate] the “hydrolysis of the product” value [1] was “no hydrolysis”, the degradation [2] was “no degradation had occurred” and the “perphenazine content (HPLC)” value ([3]; AN-197 solution in HPLC mobile phase (2:1 acetonitrile:water, pH=8), after 24 days) was 7.98%. The “perphenazine content (HPLC)” value ([3]; AN-197 solution in HPLC mobile phase (2:1 acetonitrile:water, pH=8), initial) was 0.42%, the “perphenazine content (HPLC)” value ([3]; neat oil, after 24 days) was 0.79% and the “perphenazine content (HPLC)” value ([3]; neat oil, initial) was 0.42%.
For `NCCCC(=O)OCCN1CCN(CCCN2c3ccccc3Sc3ccc(Cl)cc32)CC1` [maleate addition salt], the Salt peak area [4, 8] was 96.54%, the “Unidentified impurity peak area” value [4, 8] was 1.05% and the perphenazine peak area [4, 8] was 1.44%. For the same compound, the Salt peak area [4, 9] was 96.43%, the “Unidentified impurity peak area” value [4, 9] was 0.98% and the perphenazine peak area [4, 9] was 1.44%. For the same compound, the Salt peak area [4, 10] was 96.82%, the “Unidentified impurity peak area” value [4, 10] was 0.94% and the perphenazine peak area [4, 10] was 1.46%. For the same compound, the Salt peak area [4, 11] was 96.00%, the “Unidentified impurity peak area” value [4, 11] was 0.93% and the perphenazine peak area [4, 11] was 1.43%. The Salt peak area [4, 12] was 96.54%, the “Unidentified impurity peak area” value [4, 12] was 1.05% and the perphenazine peak area [4, 12] was 1.44%. The Salt peak area [4, 13] was 94.96%, the “Unidentified impurity peak area” value [4, 13] was 2.16% and the perphenazine peak area [4, 13] was 1.52%. The Salt peak area [4, 14] was 94.32%, the “Unidentified impurity peak area” value [4, 14] was 2.46% and the perphenazine peak area [4, 14] was 1.65%. For the same compound, the Salt peak area [4, 15] was 92.93%, the “Unidentified impurity peak area” value [4, 15] was 2.79% and the perphenazine peak area [4, 15] was 1.80%. For the same compound, the Salt peak area [4, 16] was 96.54%, the “Unidentified impurity peak area” value [4, 16] was 1.05% and the perphenazine peak area [4, 16] was 1.44%. The Salt peak area [4, 17] was 96.24%, the “Unidentified impurity peak area” value [4, 17] was 1.09% and the perphenazine peak area [4, 17] was 1.43%. For the same compound, the Salt peak area [4, 18] was 96.86%, the “Unidentified impurity peak area” value [4, 18] was 1.11% and the perphenazine peak area [4, 18] was 1.40%. For the same compound, the Salt peak area [4, 19] was 95.69%, the “Unidentified impurity peak area” value [4, 19] was 1.24% and the perphenazine peak area [4, 19] was 1.47%. For the same compound, the Salt peak area [4, 20] was 96.54%, the “Unidentified impurity peak area” value [4, 20] was 1.05% and the perphenazine peak area [4, 20] was 1.44%. For the same compound, the Salt peak area [4, 21] was 96.79%, the “Unidentified impurity peak area” value [4, 21] was 0.99% and the perphenazine peak area [4, 21] was 1.38%. For the same compound, the Salt peak area [4, 22] was 96.85%, the “Unidentified impurity peak area” value [4, 22] was 0.98% and the perphenazine peak area [4, 22] was 1.39%. For the same compound, the Salt peak area [4, 23] was 96.69%, the “Unidentified impurity peak area” value [4, 23] was 1.03% and the perphenazine peak area [4, 23] was 1.39%. For the same compound, the stability in words ([4]; all storage conditions of Table 8) was “stable in all sample forms”, the “stability and hygroscopicity in words” value ([4]; as compared to the HCl and mesylate salt) was “more stable and less hygroscopic” and the “perphenazine (HPLC)” value [4, 24] was 1.46%. The Water content % [5, 8] was 0.3%, the Water content % [5, 9] was 0.7% and the Water content % [5, 10] was 0.8%. It also gave a Water content % [5, 11] of 0.8%, a Water content % [5, 12] of 0.3% and a Water content % [5, 13] of 0.5%. The Water content % [5, 14] was 0.7%, the Water content % [5, 15] was 0.7% and the Water content % [5, 16] was 0.3%. It also gave a Water content % [5, 17] of 0.5%, a Water content % [5, 18] of 0.8% and a Water content % [5, 19] of 0.5%. The Water content % [5, 20] was 0.3%, the Water content % [5, 21] was 0.3% and the Water content % [5, 22] was 0.3%. For the same compound, the Water content % [5, 23] was 0.5%, the water content [5, 24] was 0.91% and the calculated solubility ([6]; listed as maleate salt) was 48 mg/mL. For the same compound, the “purity (HPLC)” value [7, 24] was 94.98% and the “texture and color after storage” value ([7]; listed as maleate salt) was “slightly discolored, changing from yellow to light orange but stayed as a free flowing solid”.
`NCCCC(=O)OCCN1CCN(CCCN2c3ccccc3Sc3ccc(Cl)cc32)CC1` [mesylate addition salt] showed a Salt peak area [4, 8] of 97.91%, a perphenazine peak area [4, 8] of 1.39% and a Salt peak area [4, 9] of 90.30%. It also gave a perphenazine peak area [4, 9] of 8.53%, a Salt peak area [4, 10] of 81.40% and a perphenazine peak area [4, 10] of 17.68%. For the same compound, the Salt peak area [4, 11] was 61.97%, the “Unidentified impurity peak area” value [4, 11] was 0.05% and the perphenazine peak area [4, 11] was 35.74%. For the same compound, the Salt peak area [4, 12] was 97.91%, the perphenazine peak area [4, 12] was 1.39% and the Salt peak area [4, 13] was 91.83%. The perphenazine peak area [4, 13] was 7.33%, the Salt peak area [4, 14] was 91.91% and the perphenazine peak area [4, 14] was 7.56%. For the same compound, the Salt peak area [4, 15] was 87.17%, the perphenazine peak area [4, 15] was 11.63% and the Salt peak area [4, 16] was 97.91%. For the same compound, the perphenazine peak area [4, 16] was 1.39%, the Salt peak area [4, 17] was 95.84% and the perphenazine peak area [4, 17] was 3.17%. It also gave a Salt peak area [4, 18] of 94.98%, a perphenazine peak area [4, 18] of 4.52% and a Salt peak area [4, 19] of 91.67%. The perphenazine peak area [4, 19] was 6.88%, the Salt peak area [4, 20] was 97.91% and the perphenazine peak area [4, 20] was 1.39%. The Salt peak area [4, 21] was 98.08%, the perphenazine peak area [4, 21] was 1.34% and the Salt peak area [4, 22] was 98.22%. The perphenazine peak area [4, 22] was 1.26%, the Salt peak area [4, 23] was 98.24% and the perphenazine peak area [4, 23] was 1.21%. The stability in words ([4]; sealed container at −20° C. under nitrogen atmosphere) was “mostly stable”, the Water content % [5, 8] was 0.6% and the Water content % [5, 9] was 1.2%. It also gave a Water content % [5, 10] of 4.0%, a Water content % [5, 11] of 4.8% and a Water content % [5, 12] of 0.6%. It also gave a Water content % [5, 13] of 0.8%, a Water content % [5, 14] of 1.2% and a Water content % [5, 15] of 0.9%. The Water content % [5, 16] was 0.6%, the Water content % [5, 17] was 0.8% and the Water content % [5, 18] was 1.3%. For the same compound, the Water content % [5, 19] was 1.5%, the Water content % [5, 20] was 0.6% and the Water content % [5, 21] was 0.6%. For the same compound, the Water content % [5, 22] was 0.7%, the Water content % [5, 23] was 0.6% and the calculated solubility ([6]; listed as mesylate salt) was “more than 100 mg/ml”. The “texture and color after storage” value ([7]; listed as mesylate salt) was “become sticky in texture and changed color from pink to black”.
